# Data: ChEMBL document CHEMBL1153458, “Design, synthesis and evaluation of a novel cyclohexanamine class of neuropeptide Y Y1 receptor antagonists” (Bioorg Med Chem Lett, 2009)
# Experiment: physchem
# Details: human
row,Structure (SMILES),pKa
1,COc1ccc([C@H](N[C@@H]2CC[C@@H](C(=O)N3CCC(C(=O)N4CCCC4)(c4ccccc4)CC3)C(C)(C)C2)C(F)(F)F)cc1,4.24
2,COc1ccc([C@@H](C)N[C@@H]2CC[C@@H](C(=O)N3CCC(C(=O)N4CCCC4)(c4ccccc4)CC3)C(C)(C)C2)cc1,10.2
